# Legend:
# Renin = target: T1, Renin (Homo sapiens, UniProt P00797); experiment: Inhibition of renin
# T1 sequence (P00797 whole entry): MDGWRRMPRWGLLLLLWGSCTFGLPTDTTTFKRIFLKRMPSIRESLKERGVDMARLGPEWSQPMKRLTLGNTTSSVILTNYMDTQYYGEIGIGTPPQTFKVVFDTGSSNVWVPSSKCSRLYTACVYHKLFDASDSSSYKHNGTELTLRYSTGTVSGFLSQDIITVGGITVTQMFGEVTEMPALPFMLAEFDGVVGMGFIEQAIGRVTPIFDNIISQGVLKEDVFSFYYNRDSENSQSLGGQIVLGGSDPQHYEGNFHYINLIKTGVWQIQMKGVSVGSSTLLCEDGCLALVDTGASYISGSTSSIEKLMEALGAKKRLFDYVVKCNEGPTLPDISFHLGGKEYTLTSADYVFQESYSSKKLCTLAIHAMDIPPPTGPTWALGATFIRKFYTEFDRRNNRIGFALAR
# [1] = Solubility of the compound; format: physicochemical
# Cytochrome P450 3A4 = Cytochrome P450 3A4 (Homo sapiens, UniProt P08684); experiment: Inhibition of CYP3A4; format: ADME
# Chain of Cytochrome P450 3A4 (P08684 whole entry): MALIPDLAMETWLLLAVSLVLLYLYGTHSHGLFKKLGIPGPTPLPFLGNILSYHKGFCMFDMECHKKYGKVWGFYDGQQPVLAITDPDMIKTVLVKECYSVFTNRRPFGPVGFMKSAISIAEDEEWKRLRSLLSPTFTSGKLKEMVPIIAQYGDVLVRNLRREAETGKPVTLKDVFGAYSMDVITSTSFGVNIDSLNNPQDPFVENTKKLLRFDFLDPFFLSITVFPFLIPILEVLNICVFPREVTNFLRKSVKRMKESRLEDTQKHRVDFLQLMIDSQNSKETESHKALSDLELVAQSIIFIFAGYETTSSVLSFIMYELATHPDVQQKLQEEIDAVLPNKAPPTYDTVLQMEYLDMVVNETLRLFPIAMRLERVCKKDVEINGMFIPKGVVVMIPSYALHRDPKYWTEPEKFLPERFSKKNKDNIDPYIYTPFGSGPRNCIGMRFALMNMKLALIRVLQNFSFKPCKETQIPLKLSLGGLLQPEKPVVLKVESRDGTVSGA
# [2] = Elimination half life in Sprague-Dawley rat; format: ADME, organism-based; details: in vivo
# [3] = Plasma clearance in Sprague-Dawley rat; format: ADME, organism-based
# [4] = Volume of distribution in Sprague-Dawley rat; format: ADME, organism-based; details: in vivo, read-out: Vdss
# [5] = Oral bioavailability in Sprague-Dawley rat; format: ADME, organism-based; details: in vivo
# [6] = target: Cathepsin D (Homo sapiens) (UniProt P07339); experiment: Inhibition of cathepsin D at 100 uM
# Chain of Cathepsin D (Homo sapiens) (P07339 65-162 limits assumed): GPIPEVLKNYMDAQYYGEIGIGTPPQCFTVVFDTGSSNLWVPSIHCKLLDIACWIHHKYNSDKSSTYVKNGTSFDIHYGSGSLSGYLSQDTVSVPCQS
# Chain of Cathepsin D (Homo sapiens) (P07339 169-412 limits assumed): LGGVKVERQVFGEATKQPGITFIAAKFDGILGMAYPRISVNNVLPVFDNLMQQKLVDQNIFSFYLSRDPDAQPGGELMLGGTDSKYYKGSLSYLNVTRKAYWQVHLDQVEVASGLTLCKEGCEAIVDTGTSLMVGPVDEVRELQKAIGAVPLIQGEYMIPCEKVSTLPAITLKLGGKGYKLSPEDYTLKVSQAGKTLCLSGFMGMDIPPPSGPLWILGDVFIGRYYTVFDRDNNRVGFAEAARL
# [7] = target: T2, Cathepsin E (Homo sapiens) (UniProt P14091); experiment: Inhibition of cathepsin E at 100 uM
# T2 sequence (whole entry): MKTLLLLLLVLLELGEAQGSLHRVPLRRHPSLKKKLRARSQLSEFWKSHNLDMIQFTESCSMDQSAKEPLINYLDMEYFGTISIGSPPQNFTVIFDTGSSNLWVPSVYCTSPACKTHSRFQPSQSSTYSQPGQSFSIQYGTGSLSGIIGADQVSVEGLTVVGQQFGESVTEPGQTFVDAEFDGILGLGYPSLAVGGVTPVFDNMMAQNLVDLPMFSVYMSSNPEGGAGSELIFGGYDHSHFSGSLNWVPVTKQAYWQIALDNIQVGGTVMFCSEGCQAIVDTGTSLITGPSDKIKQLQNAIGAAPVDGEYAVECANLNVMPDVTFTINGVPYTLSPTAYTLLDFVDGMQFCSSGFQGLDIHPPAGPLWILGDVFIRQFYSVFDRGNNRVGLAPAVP
# Homo sapiens = species on record: Homo sapiens; experiment: Inhibition of pepsin at 100 uM
# [8] = Half life in human liver microsome; format: ADME; details: liver microsomes
SMILES,IC50 (Renin) [nM],solubility [1] [mg/mL],IC50 (Cytochrome P450 3A4) [nM],half-life [2] [min],clearance [3] [L/h/kg],Vd [4] [L/kg],bioavailability [5] [%],inhibition [6] [%],inhibition [7] [%],inhibition (Homo sapiens) [%],half-life [8] [min]
CCc1nc(N)nc(N)c1-c1ccc(NCc2cc(F)cc(F)c2)cc1,4000,–,–,–,–,–,–,–,–,–,–
CCc1nc(N)nc(N)c1-c1ccc(NCc2ccc(Cl)c(Cl)c2)cc1,27000,–,–,–,–,–,–,–,–,–,–
COC[C@@H](O)CO[C@@H]1CNC[C@H](OCc2cc(OC)c3ccccc3c2)[C@H]1c1ccc(OCCCOCc2ccccc2OC)cc1,0.067,–,–,–,–,–,–,–,–,–,–
COc1ccccc1COCCCOc1ccc(N2C(=O)CNC[C@@H]2COc2ccc3c(c2)N(CCNC(C)=O)CCC3)cc1,0.5,–,–,–,–,–,–,–,–,–,–

# The next lines start with the values.
IC50 (Renin) [nM],solubility [1] [mg/mL],IC50 (Cytochrome P450 3A4) [nM],half-life [2] [min],clearance [3] [L/h/kg],Vd [4] [L/kg],bioavailability [5] [%],inhibition [6] [%],inhibition [7] [%],inhibition (Homo sapiens) [%],half-life [8] [min],SMILES
650,0.0593,2800,66.6,2.21,1.6,< 10,0,0,0,–,CCc1nc(N)nc(N)c1-c1ccc2c(c1)N(CCCOC)CCC2
120,–,–,–,–,–,–,0,0,0,5,CCc1nc(N)nc(N)c1-c1ccc2c(c1)N(CCCC(=O)OC)CCC2
198,–,10000,–,–,–,–,0,0,0,5,CCc1nc(N)nc(N)c1-c1ccc2c(c1)N(CCC(=O)OC)CCC2
178,–,8000,–,–,–,–,0,0,0,–,CCc1nc(N)nc(N)c1-c1ccc2c(c1)N(CCNC(C)=O)CCC2
91,–,12000,–,–,–,–,0,0,0,5,CCc1nc(N)nc(N)c1-c1ccc2c(c1)N(CCCCC(=O)OC)CCC2

# Source: ChEMBL document CHEMBL1145363, “Discovery of 6-ethyl-2,4-diaminopyrimidine-based small molecule renin inhibitors” (Bioorg Med Chem Lett, 2007)
